Measurements from the supplement of paper PMC10307832.

Experiments:
Test in all cases: relative viability (nuclei count vs DMSO), 5 days (fraction); higher = more cells survive
[1] = tested on: NCI-H1666
Method in brief: (§1)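 Values are medians from duplicate plates. Each reflects relative viability, defined as the nuclei count of treated wells over that of vehicle wells. Lung cancer cell lines in 1536-well plates were pin-tool dosed one day after seeding with one drug alone or with a fixed anchor-drug dose plus five library-drug doses (not always all listed) in √10 steps, then fixed, stained and imaged at 4× after 5 days.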

[2] = tested on: NCI-H1755
Method in brief: as §1

[3] = tested on: NCI-H520
Method in brief: as §1

[4] = tested on: NCI-H322M
Method in brief: as §1

[5] = tested on: NCI-H2347
Method in brief: as §1

[6] = tested on: SK-LU-1
Method in brief: as §1

[7] = tested on: NCI-H1395
Method in brief: as §1

[8] = tested on: HCC-827
Method in brief: as §1

[9] = tested on: CAL-12T
Method in brief: as §1

[10] = tested on: RERF-LC-KJ
Method in brief: as §1

[11] = tested on: NCI-H1793
Method in brief: as §1

[12] = tested on: ABC-1
Method in brief: as §1

[13] = tested on: NCI-H2126
Method in brief: as §1

[14] = tested on: ChaGo-K-1
Method in brief: as §1

[15] = tested on: NCI-H3122
Method in brief: as §1

[16] = tested on: NCI-H358
Method in brief: as §1

[17] = tested on: LU99A
Method in brief: as §1

[18] = tested on: NCI-H1944
Method in brief: as §1

[19] = tested on: LCLC-103H
Method in brief: as §1

[20] = tested on: LXF-289
Method in brief: as §1

Cc1cn(-c2cc(NC(=O)c3ccc(C)c(Nc4nccc(-c5cccnc5)n4)c3)cc(C(F)(F)F)c2)cn1 [Nilotinib] + COc1cc2c(Oc3ccc(NC(=O)C4(C(=O)Nc5ccc(F)cc5)CC4)cc3F)ccnc2cc1OCCCN1CCOCC1 [Foretinib] (partner 0.25 µM)
relative viability ([1]; first compound 0.001 µM): 0.929 | relative viability ([1]; first compound 0.003162 µM): 0.996 | relative viability ([1]; first compound 0.03162 µM): 0.911 | relative viability ([1]; first compound 0.1 µM): 1.07 | relative viability ([2]; first compound 0.001 µM): 0.892 | relative viability ([2]; first compound 0.003162 µM): 0.968 | relative viability ([2]; first compound 0.01 µM): 0.974 | relative viability ([2]; first compound 0.03162 µM): 0.983 | relative viability ([2]; first compound 0.1 µM): 0.843 | relative viability ([3]; first compound 0.001 µM): 0.757 | relative viability ([3]; first compound 0.003162 µM): 1.03 | relative viability ([3]; first compound 0.01 µM): 0.91 | relative viability ([3]; first compound 0.03162 µM): 0.684 | relative viability ([3]; first compound 0.1 µM): 0.688 | relative viability ([4]; first compound 0.001 µM): 1.01 | relative viability ([4]; first compound 0.003162 µM): 0.987 | relative viability ([4]; first compound 0.01 µM): 1.05 | relative viability ([4]; first compound 0.03162 µM): 0.956 | relative viability ([4]; first compound 0.1 µM): 1.07 | relative viability ([5]; first compound 0.001 µM): 1.14 | relative viability ([5]; first compound 0.003162 µM): 0.65 | relative viability ([5]; first compound 0.01 µM): 0.6 | relative viability ([5]; first compound 0.03162 µM): 0.77 | relative viability ([5]; first compound 0.1 µM): 0.501 | relative viability ([6]; first compound 0.001 µM): 0.745 | relative viability ([6]; first compound 0.003162 µM): 0.925 | relative viability ([6]; first compound 0.01 µM): 0.956 | relative viability ([6]; first compound 0.03162 µM): 0.691 | relative viability ([6]; first compound 0.1 µM): 0.666 | relative viability ([7]; first compound 0.001 µM): 1.07 | relative viability ([7]; first compound 0.003162 µM): 0.937 | relative viability ([7]; first compound 0.01 µM): 0.953 | relative viability ([7]; first compound 0.03162 µM): 0.853 | relative viability ([7]; first compound 0.1 µM): 1.02 | relative viability ([8]; first compound 0.003162 µM): 1.13 | relative viability ([8]; first compound 0.01 µM): 1.06 | relative viability ([8]; first compound 0.03162 µM): 0.939 | relative viability ([8]; first compound 0.1 µM): 0.938 | relative viability ([9]; first compound 0.001 µM): 1.1 | relative viability ([9]; first compound 0.003162 µM): 1.09 | relative viability ([9]; first compound 0.01 µM): 1.17 | relative viability ([9]; first compound 0.1 µM): 0.87 | relative viability ([10]; first compound 0.001 µM): 0.967 | relative viability ([10]; first compound 0.003162 µM): 1.08 | relative viability ([10]; first compound 0.01 µM): 0.924 | relative viability ([10]; first compound 0.03162 µM): 0.81 | relative viability ([10]; first compound 0.1 µM): 0.912 | relative viability ([11]; first compound 0.001 µM): 0.768 | relative viability ([11]; first compound 0.003162 µM): 1.02 | relative viability ([11]; first compound 0.01 µM): 0.79 | relative viability ([11]; first compound 0.03162 µM): 0.542 | relative viability ([11]; first compound 0.1 µM): 0.582 | relative viability ([12]; first compound 0.001 µM): 0.963 | relative viability ([12]; first compound 0.003162 µM): 1.32 | relative viability ([12]; first compound 0.01 µM): 1.17 | relative viability ([12]; first compound 0.03162 µM): 0.918 | relative viability ([12]; first compound 0.1 µM): 1.32 | relative viability ([13]; first compound 0.001 µM): 1.08 | relative viability ([13]; first compound 0.003162 µM): 1.41 | relative viability ([13]; first compound 0.01 µM): 1.26 | relative viability ([13]; first compound 0.03162 µM): 1.2 | relative viability ([13]; first compound 0.1 µM): 1.08 | relative viability ([14]; first compound 0.001 µM): 0.799 | relative viability ([14]; first compound 0.003162 µM): 1.09 | relative viability ([14]; first compound 0.01 µM): 1.03 | relative viability ([14]; first compound 0.03162 µM): 0.582 | relative viability ([14]; first compound 0.1 µM): 0.756 | relative viability ([15]; first compound 0.001 µM): 1.02 | relative viability ([15]; first compound 0.003162 µM): 1.09 | relative viability ([15]; first compound 0.01 µM): 1.08 | relative viability ([15]; first compound 0.03162 µM): 0.929 | relative viability ([15]; first compound 0.1 µM): 0.68 | relative viability ([16]; first compound 0.001 µM): 0.655 | relative viability ([16]; first compound 0.003162 µM): 0.8 | relative viability ([16]; first compound 0.01 µM): 0.818 | relative viability ([16]; first compound 0.03162 µM): 0.446 | relative viability ([16]; first compound 0.1 µM): 0.346 | relative viability ([17]; first compound 0.001 µM): 0.784 | relative viability ([17]; first compound 0.003162 µM): 0.848 | relative viability ([17]; first compound 0.01 µM): 0.889 | relative viability ([17]; first compound 0.03162 µM): 0.823 | relative viability ([17]; first compound 0.1 µM): 0.509 | relative viability ([18]; first compound 0.001 µM): 0.907 | relative viability ([18]; first compound 0.003162 µM): 1.05 | relative viability ([18]; first compound 0.01 µM): 1.06 | relative viability ([18]; first compound 0.03162 µM): 0.739 | relative viability ([19]; first compound 0.001 µM): 0.737 | relative viability ([19]; first compound 0.003162 µM): 0.86 | relative viability ([19]; first compound 0.01 µM): 0.837 | relative viability ([19]; first compound 0.03162 µM): 0.581 | relative viability ([19]; first compound 0.1 µM): 0.67 | relative viability ([20]; first compound 0.001 µM): 0.968 | relative viability ([20]; first compound 0.003162 µM): 1.16 | relative viability ([20]; first compound 0.03162 µM): 0.893 | relative viability ([20]; first compound 0.1 µM): 0.761
